Reference: ChEMBL document CHEMBL4425128, “Functional Characterization of Cholera Toxin Inhibitors Using Human Intestinal Organoids” (J Med Chem, 2016)
Activity calls are given as the source filed them. The calls are words filed in the database; no cut-off is given here.

Experiments:
[1] = biological target: Cystic fibrosis transmembrane conductance regulator (Homo sapiens) (UniProt P13569); assay: Inhibition of CFTR in human intestinal organoids assessed as reduction in forskolin-induced oganoids swelling incubated for 4 hrs with cholera toxin followed by subsequent stimulation with 0.1 uM forskolin by calcein AM staining based confocal microscopy; conditions: Intestine
[2] = Inhibition of cholera toxin in human intestinal organoids assessed as reduction in oganoids swelling using cholera toxin pre-incubated with compound for 4 hrs before organoid stimulation with cholera toxin by calcein AM staining based confocal microscopy; conditions: Vibrio cholerae, Intestine
[3] = Inhibition of HRP-tagged Vibrio cholerae cholera enterotoxin subunit B5 binding to GM1 coated plates using GM1os-beta-NAc-propargyl

Chain of Cystic fibrosis transmembrane conductance regulator (Homo sapiens) (P13569 whole entry, looked up): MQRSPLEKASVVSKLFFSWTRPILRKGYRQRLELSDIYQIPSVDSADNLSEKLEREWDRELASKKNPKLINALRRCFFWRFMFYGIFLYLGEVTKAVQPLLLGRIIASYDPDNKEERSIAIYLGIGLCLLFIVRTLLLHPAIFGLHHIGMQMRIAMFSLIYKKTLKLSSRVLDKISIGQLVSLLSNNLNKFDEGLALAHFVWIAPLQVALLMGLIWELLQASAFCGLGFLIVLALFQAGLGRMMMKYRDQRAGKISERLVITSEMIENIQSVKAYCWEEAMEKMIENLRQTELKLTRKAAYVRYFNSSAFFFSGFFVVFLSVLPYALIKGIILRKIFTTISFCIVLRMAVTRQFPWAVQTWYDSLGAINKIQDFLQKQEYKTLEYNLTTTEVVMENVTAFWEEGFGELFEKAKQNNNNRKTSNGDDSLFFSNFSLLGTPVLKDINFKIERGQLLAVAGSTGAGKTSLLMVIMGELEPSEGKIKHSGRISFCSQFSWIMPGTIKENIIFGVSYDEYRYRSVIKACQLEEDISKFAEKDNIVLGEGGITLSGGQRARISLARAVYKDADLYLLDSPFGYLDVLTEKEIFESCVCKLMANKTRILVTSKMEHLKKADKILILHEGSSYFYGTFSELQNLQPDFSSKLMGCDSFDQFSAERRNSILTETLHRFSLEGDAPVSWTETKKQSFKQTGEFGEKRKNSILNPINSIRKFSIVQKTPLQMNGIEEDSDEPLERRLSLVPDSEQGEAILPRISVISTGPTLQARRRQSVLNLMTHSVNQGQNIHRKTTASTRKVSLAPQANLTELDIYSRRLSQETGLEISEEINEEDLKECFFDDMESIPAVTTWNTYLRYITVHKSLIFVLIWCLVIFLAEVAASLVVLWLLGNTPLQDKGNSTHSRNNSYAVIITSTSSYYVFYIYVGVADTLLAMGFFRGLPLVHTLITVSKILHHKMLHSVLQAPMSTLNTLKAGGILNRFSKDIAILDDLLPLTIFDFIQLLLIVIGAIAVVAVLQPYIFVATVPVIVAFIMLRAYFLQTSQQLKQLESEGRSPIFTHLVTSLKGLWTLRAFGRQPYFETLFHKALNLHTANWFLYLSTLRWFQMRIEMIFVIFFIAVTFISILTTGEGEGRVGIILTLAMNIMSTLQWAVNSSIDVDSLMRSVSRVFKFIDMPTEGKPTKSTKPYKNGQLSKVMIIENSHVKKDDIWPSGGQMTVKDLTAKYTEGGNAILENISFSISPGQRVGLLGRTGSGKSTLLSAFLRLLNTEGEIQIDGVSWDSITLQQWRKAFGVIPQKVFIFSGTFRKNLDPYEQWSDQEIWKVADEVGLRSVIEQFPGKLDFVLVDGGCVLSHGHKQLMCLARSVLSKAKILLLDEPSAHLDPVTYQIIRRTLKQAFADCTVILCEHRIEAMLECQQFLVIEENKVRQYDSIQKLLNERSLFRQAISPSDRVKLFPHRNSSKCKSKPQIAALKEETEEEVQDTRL

## O=C[C@H](O)[C@@H](O)[C@@H](O)[C@H](O)CO [GALACTOSE]
[1]
  inhibition: inactive
[2]
  IC50: 9100 µM

## CC(=O)N[C@H]1[C@H](O[C@@H]2[C@H](O[C@]3(C(=O)O)C[C@H](O)[C@@H](NC(C)=O)[C@H]([C@H](O)[C@H](O)CO)O3)[C@@H](O)[C@H](O[C@H]3[C@H](O)[C@@H](O)[C@H](N(Cc4cn([C@@H]5[C@@H](OC(C)=O)O[C@@H](n6cc(CN(C(C)=O)[C@@H]7O[C@H](CO)[C@@H](O[C@@H]8O[C@H](CO)[C@H](O[C@@H]9O[C@H](CO)[C@H](O)[C@H](O[C@@H]%10O[C@H](CO)[C@H](O)[C@H](O)[C@H]%10O)[C@H]9NC(C)=O)[C@H](O[C@]9(C(=O)O)C[C@H](O)[C@@H](NC(C)=O)[C@H]([C@H](O)[C@H](O)CO)O9)[C@H]8O)[C@H](O)[C@H]7O)nn6)[C@H](OC(C)=O)[C@H]5OC(C)=O)nn4)C(C)=O)O[C@@H]3CO)O[C@@H]2CO)O[C@H](CO)[C@H](O)[C@@H]1O[C@@H]1O[C@H](CO)[C@H](O)[C@H](O)[C@H]1O
[3]
  IC50: 0.008 µM
[1]
  inhibition: inactive
[2]
  IC50: 0.018 µM

## CC(=O)N[C@H]1[C@H](O[C@@H]2[C@H](O[C@]3(C(=O)O)C[C@H](O)[C@@H](NC(C)=O)[C@H]([C@H](O)[C@H](O)CO)O3)[C@@H](O)[C@H](O[C@H]3[C@H](O)[C@@H](O)[C@H](N(Cc4cn(CCOCCOCCOCCO)nn4)C(C)=O)O[C@@H]3CO)O[C@@H]2CO)O[C@H](CO)[C@H](O)[C@@H]1O[C@@H]1O[C@H](CO)[C@H](O)[C@H](O)[C@H]1O
[3]
  IC50: 0.11 µM
[1]
  inhibition: inactive
[2]
  IC50: 0.424 µM
